Values of other authors, collected in patent US11452717B2, “Small molecule activators of nicotinamide phosphoribosyltransferase (NAMPT) and uses thereof” (Sanford Burnham Prebys Medical Discovery Institute, priority 2017, dated 2022).

Tested on: human smooth muscle cells
Conditions: serial quantification of the proportion of cells with senescence-associated beta-galactosidase activity; cited from earlier work

O=C(/C=C/c1cccnc1)NCCCCC1CCN(C(=O)c2ccccc2)CC1 [FK866]
senescence in smooth muscle cells: induced premature senescence
